One assay relates to splenic T cells. Put plainly: Mitogenesis of spleen T cells (ConA, 3H-thymidine) from LP-BM5-infected mice given SP aerosol. It is filed as in vivo, C57BL6 mice. As for the experimental part: (§1) C57BL6 mice, average weight of 25-30 grams, were infected with the LP-BM5 murine leukemia retrovirus to simulate the human AIDS virus. […] The mice were divided into two groups; LP-BM5 virus only and LP-BM5 virus +substance P aerosol therapy at 1 μM concentration. The mice were killed at 4 and 8 weeks post-inoculation.
The proliferation of splenic B and T cells induced by mitogens was determined by incorporation of radioactive thymidine. Splenocytes in 0.1 ml of cell culture medium (1×10^7 cells/ml) were cultured in 96-well flat-bottom cultured plates with ConA and lipopolysaccharide, 5 micrograms/ml). […] After 4 hours for radioactive thymidine uptake, the cells were harvested by a cell sample harvester. Radioactivity was determined by a liquid scintillation counter (Tri-Carb, 2200CA). The T and B cell mitogenesis values were recorded as counts per min in 1×10^7 cells/ml.

Another assay relates to splenic B cells. The assay is described as follows: Mitogenesis of spleen B cells (lipopolysaccharide, 3H-thymidine) from LP-BM5-infected mice given SP aerosol. It is filed as in vivo, C57BL6 mice. As to conditions: LP-BM5 virus + SP aerosol 1 μM. As for the experimental part: as §1
The proliferation of splenic B and T cells induced by mitogens was determined by incorporation of radioactive thymidine. Splenocytes in 0.1 ml of cell culture medium (1×10^7 cells/ml) were cultured in 96-well flat-bottom cultured plates with ConA and lipopolysaccharide, 5 micrograms/ml). The cells were incubated at 37° C., 5% CO2 incubator for 72 hours for ConA-induced T cell proliferation, and then pulsed with ^3 H-thymidine (1 microCurie/well). After 4 hours for radioactive thymidine uptake, the cells were harvested by a cell sample harvester. Radioactivity was determined by a liquid scintillation counter (Tri-Carb, 2200CA). The T and B cell mitogenesis values were recorded as counts per min in 1×10^7 cells/ml.

For assay [1], the system named is LP-BM5 murine leukemia retrovirus. Put plainly: Mouse AIDS model, spleen changes and total cell numbers. It is filed as in vivo, C57BL6 mice. As for the experimental part:
as §1

The test system of a further assay is immune system. Put plainly: Immune parameters and immune function (blastogenesis, mixed lymphocyte response) after JP-8 exposure. It is filed as in vivo, C57B16 mice. As for the experimental part: At 24 hours after the last exposure, the animals were sacrificed and the effects of exposure on the immune system examined. Immune organs (spleen, thymus, blood, lymph nodes and bone marrow) were recovered and analyzed for effects on organ weight, total cell numbers, immune cell populations (by differentials), and lymphocyte subpopulations (by flow cytometry). Assays were also performed to examine the effects of exposure on immune function. […] Similar effects on immune cell subpopulations were also observed in lymph nodes. In the thymus it appeared that the immature CD4^+ CD8^+ cells were differentially lost due to exposure. […] However, these effects are prevented or ameliorated by treatment of the animals with Substance P.
Blastogenesis and Mixed lymphocyte response (MLR) assays: Blastogenesis and MLR assays are set up in 96 well microtitre plated in replicates of 6. Responder cells are plated at 1×10^5 cells/well and are stimulated as indicated (with either media, alloantigen, growth factors or mitogens). After 72 hours the plates are pulsed with 1 uCi/well of ^3 H-thymidine for 18 hours. The wells are then harvested using a Ph.D. cell harvester, the filters dried and scintillation counting performed. The data is presented as the stimulated dpm and is represented as the stimulation index (SI) (Harris et al., Proc. Natl. Acad Sci. USA 89:10006 (1992)).

[2] abbreviates: LP-BM5 virus + SP aerosol 1 μM, 4 weeks after infection, mean (SEM).
The mark [3] stands for this setting: 4 weeks after infection, mean (SEM).

For Substance P [SP], the “Spleen T Cell Mitogenesis, 24 Hours in Culture” value with splenic T cells (LP-BM5 virus + SP aerosol 1 μM 3 days/week, 4 weeks after infection, mean (SEM)) was 2963 (56) counts per min. Moreover, in the assay on splenic T cells (setting [2]), the “Spleen T Cell Mitogenesis, 48 Hours in Culture” value is 2769 (23) counts per min and the “Spleen T Cell Mitogenesis, 72 hours in culture” value is 4362 (69) counts per min. The “Spleen T Cell Mitogenesis, 72 hours in culture” value with splenic T cells (LP-BM5 virus + SP aerosol 1 μM, 8 weeks post-infection) is given as 3127 (77) counts per min. Also, in the assay on splenic B cells (setting [3]), the “Spleen B Cell Mitogenesis, 24 Hours in Culture” value was 2063 (448) counts per min; the “Spleen B Cell Mitogenesis, 48 Hours in Culture” value is 1369 (231) counts per min; the “Spleen B Cell Mitogenesis, 72 hours in culture” value was 1642 (158) counts per min. Moreover, the “Spleen B Cell Mitogenesis, 72 hours in culture” value in the assay on splenic B cells (8 weeks post-infection, not significant) is recorded as 3227 (854) counts per min. For the same substance, the “changes in the mouse spleens” value in assay [1] (LP-BM5 mouse model, SP aerosol therapy) was “caused significant changes in the mouse spleens”. In assay [1] (SP+Virus Group, 4 weeks after infection), the “total cell numbers (spleen) versus LP-BM5 group” value is recorded as “not accompanied by an increase in total cell numbers”. The “deleterious effects of chronic JP-8 jet fuel exposure to the immune system” value in the assay on immune system (Substance P aerosol therapy) is listed as “reversed and/or prevented”. Moreover, the “majority of the effects of JP-8 jet fuel exposure on the immune system” value with immune system (Substance P at both 1 uM and 1 nM doses) is “could be significantly reversed”. Also, the “effects of JP-8 exposure on all measured immune parameters” value in the assay with immune system (mice exposed to 500, 1000 or 2500 mg aerosolized JP-8, 7 days 1 hour/day, treated with Substance P) is reported as “invariably reversed the effects on all measured parameters of JP-8 exposure to almost normal levels”.

The record behind these values is patent US5998376A, “Substance P treatment for immunostimulation” (priority 1998, dated 1999).
